Laboratory results taken from ChEMBL document CHEMBL1136644, “Alkylation of manganese(II) tetraphenylporphyrin by antimalarial fluorinated artemisinin derivatives” (Bioorg Med Chem Lett, 2003).

Columns and labels:
[1] = Half-life in plasma; format: ADME, cell-free
Plasmodium falciparum = experiment: In vitro inhibitory activity against the chloroquine-resistant Plasmodium falciparum W2 Indochina; format: functional, organism-based
[2] = Partition coefficient (logP); format: physicochemical; details: octanol/water

logP [2] | SMILES | half-life [1] | IC50 (Plasmodium falciparum)
– | C[C@H]1[C@@H](C(=O)OCCC(=O)[O-])O[C@@H]2O[C@]3(C)CC[C@H]4[C@H](C)CC[C@@H]1C24OO3.[Na+] | < 2 h | –
– | C[C@@H]1CC[C@H]2[C@@H](C)[C@](O[Si](C)(C)C)(C(F)(F)F)O[C@@H]3O[C@]4(C)CC[C@@H]1C32OO4 | – | 0.072 µM
3.36 | CO[C@H]1O[C@@H]2OC3(C)CC[C@H]4[C@H](C)CC[C@@H]([C@H]1C)[C@@]24OO3 (single isomer, unassigned) [ARTEMETHER] | < 2 h | –
– | C[C@@H]1CC[C@H]2[C@@H](C)C(=O)O[C@@H]3OC4(C)CC[C@@H]1[C@]32OO4 (single isomer, unassigned) [ARTEMISININ] | < 2 h | –
